From ChEMBL document CHEMBL1671634, “Statins alone are ineffective in cerebral malaria but potentiate artesunate” (2008)
The source made the active and inactive calls. No cut-off for these calls is given here.

Columns and labels:
Plasmodium falciparum [1] = test: Antimalarial activity against Plasmodium falciparum infected in mouse assessed as parasitemia at 20 mg/kg, ip, qd administered 4 days post infection for 3 days measured after 6 days (Rvb =8.7+/-1.4 %); format: functional
Plasmodium falciparum [2] = test: Antimalarial activity against Plasmodium falciparum infected in mouse assessed as mouse survival at 20 mg/kg, ip, qd administered 4 days post infection for 3 days measured after 6 days relative to control; format: functional, organism-based; parameters: dose 20 mg/kg
Plasmodium falciparum [3] = test: Antimalarial activity against Plasmodium falciparum infected in mouse assessed as parasitemia at 20 mg/kg, ip, qd administered 5 days post infection for 3 days measured after 6 days (Rvb =8.3+/-1.3 %); format: functional
Plasmodium falciparum [4] = test: Antimalarial activity against Plasmodium falciparum infected in mouse assessed as parasitemia at 100 mg/kg, ip, qd administered 5 days post infection for 3 days measured after 6 days (Rvb =8.3+/-1.3 %); format: functional
Plasmodium falciparum [5] = test: Antimalarial activity against Plasmodium falciparum infected in mouse assessed as mouse survival at 20 mg/kg, ip, qd administered 5 days post infection for 3 days measured after 6 days relative to control; format: functional, organism-based; parameters: dose 20 mg/kg
Plasmodium falciparum [6] = test: Antimalarial activity against Plasmodium falciparum infected in mouse assessed as mouse survival at 100 mg/kg, ip, qd administered 5 days post infection for 3 days measured after 6 days relative to control; format: functional, organism-based; parameters: dose 100 mg/kg
Plasmodium falciparum [7] = test: Antimalarial activity against Plasmodium falciparum infected in mouse assessed as parasitemia at 40 mg/kg, ip, qd administered 5 days post infection for 3 days measured after 6 days (Rvb =9.9+/-2.2 %); format: functional
Plasmodium falciparum [8] = test: Antimalarial activity against Plasmodium falciparum infected in mouse assessed as parasitemia at 200 mg/kg, ip, qd administered 5 days post infection for 3 days measured after 6 days (Rvb =9.9+/-2.2 %); format: functional
Plasmodium falciparum [9] = test: Antimalarial activity against Plasmodium falciparum infected in mouse assessed as mouse survival at 40 mg/kg, ip, qd administered 5 days post infection for 3 days measured after 6 days relative to control; format: functional, organism-based; parameters: dose 40 mg/kg
Plasmodium falciparum [10] = test: Antimalarial activity against Plasmodium falciparum infected in mouse assessed as mouse survival at 200 mg/kg, ip, qd administered 5 days post infection for 3 days measured after 6 days relative to control; format: functional, organism-based; parameters: dose 200 mg/kg
Plasmodium falciparum [11] = test: Antimalarial activity against Plasmodium falciparum infected in mouse assessed as parasitemia at 40 mg/kg, ip, qd administered 3 days post infection for 6 days measured after 6 days (Rvb =8.0+/-1.6 %); format: functional
Plasmodium falciparum [12] = test: Antimalarial activity against Plasmodium falciparum infected in mouse assessed as mouse survival at 40 mg/kg, ip, qd administered 3 days post infection for 6 days measured after 6 days relative to control; format: functional, organism-based; parameters: dose 40 mg/kg

CC(C)c1c(C(=O)Nc2ccccc2)c(-c2ccccc2)c(-c2ccc(F)cc2)n1CC[C@@H](O)C[C@@H](O)CC(=O)O [ATORVASTATIN] was tested. Which Activity (Plasmodium falciparum [1]) did it give?
Its Activity is 9.5%.

And the Survival (Plasmodium falciparum [2])?
Its Survival is “inactive”.

Which Activity (Plasmodium falciparum [3]) does the source give for CC(C)n1c(/C=C/C(O)CC(O)CC(=O)O)c(-c2ccc(F)cc2)c2ccccc21 (configuration not stated) [FLUVASTATIN] here?
The Activity was 7.4%.

What about the Activity (Plasmodium falciparum [4]) of the same molecule?
Its Activity is 7.4%.

What about the Survival (Plasmodium falciparum [5]) of the same molecule?
The Survival was “inactive”.

What about the Survival (Plasmodium falciparum [6]) of the same molecule?
The Survival was “inactive”.

Which Activity (Plasmodium falciparum [7]) does the source give for CC[C@H](C)C(=O)O[C@H]1C[C@H](O)C=C2C=C[C@H](C)[C@H](CC[C@@H](O)C[C@@H](O)CC(=O)O)[C@H]21 [PRAVASTATIN] here?
The Activity was 11.5%.

What about the Activity (Plasmodium falciparum [8]) of the same molecule?
The Activity was 11.8%.

What about the Survival (Plasmodium falciparum [9]) of the same molecule?
The Survival was “inactive”.

And the Survival (Plasmodium falciparum [10])?
Its Survival is “inactive”.

CCC(C)(C)C(=O)O[C@H]1C[C@@H](C)C=C2C=C[C@H](C)[C@H](CC[C@@H]3C[C@@H](O)CC(=O)O3)[C@H]21 [SIMVASTATIN] was tested. Which Activity (Plasmodium falciparum [11]) did it give?
The Activity was 8.5%.

And the Survival (Plasmodium falciparum [12])?
The Survival was “inactive”.
